Data as given in patent publication US11535670B2, “Combination therapies of HDAC inhibitors and PD-L1 inhibitors” (HUYABIO International, LLC, priority 2016, dated 2022).

What was measured:
[1] = test system: MC38 murine colon carcinoma; assay: Example 2: tumor growth delay in MC38 syngeneic model, HBI-8000 alone and with PD-L1 inhibitor antibody; type: in vivo, C57BL/6 mice; details: HBI-8000 50 mg/kg p.o. qd×21, anti-PDL-1 5 mg/kg i.p. biwk×3
Protocol: In the present example, HBI-8000 was tested as monotherapy and in combination with PD-L1 inhibitor antibody at 5 mg/kg. The experiment included a vehicle-treated group and a PD-L1 inhibitor antibody monotherapy group, which served as the control groups for analysis of efficacy. Tumors were measured twice per week until the study was ended on Day 50. Each animal was euthanized when its tumor attained the endpoint tumor volume of 1000 mm^3 or on the final day of the study, whichever came first, and the time to endpoint (TTE) for each mouse was calculated. Treatment response was determined from an analysis of percent tumor growth delay (% TGD), defined as the percent increase in the median time to endpoint (TTE) for treated versus control mice; and by logrank significance of differences in survival among groups and regression responses.
Mice: Details of the animals used in this example can be found in Example 1.
Tumor Cell Culture: Details of the tumor cells used in this example can be found in Example 1.
Tumor Implantation and Measurement: Details of tumor implantation and measurement of tumor growth used in this example can be found in paragraph Example 1. […]
Statistics: Details of the statistics and software used in this study can be found in Example 1. […] Table 3.1 describes the values calculated for TTE and % TGD for each treatment group.

[2] = oral administration; cited from earlier work
[3] = test system: MC38 murine colon carcinoma; assay: Example 1: tumor growth delay in MC38 syngeneic model, HBI-8000 at two doses alone and with PD-L1 inhibitor antibody; type: in vivo, C57BL/6 mice; details: for Median TTE: endpoint 1000 mm^3 or Day 47; for % TGD: versus vehicle
Protocol: In Example 1 HBI-8000 was tested in two doses as monotherapy and in two doses in combination with PD-L1 inhibitor antibody at 5 mg/kg. The experiment included a vehicle-treated group and a PD-L1 inhibitor antibody monotherapy group, which served as control groups for analysis of efficacy. Tumors were measured twice per week until the study was ended on Day 47. Each animal was euthanized when its tumor attained the endpoint tumor volume of 1000 mm^3 or on the final day of the study, whichever came first, and the time to endpoint (TTE) for each mouse was calculated. Treatment response was determined from an analysis of percent tumor growth delay (% TGD), defined as the percent increase in the median time to endpoint (TTE) for treated versus control mice; and by logrank significance of differences in survival among groups and regression responses.
Mice: Female C57BL/6 mice (Charles River Laboratories) were eight weeks old, with a body weight (BW) range of 15.4 to 22.0 grams on Day 1 of the study. The animals were fed ad libitum water (reverse osmosis, 1 ppm Cl), and NIH 31 Modified and Irradiated Lab Diet® consisting of 18.0% crude protein, 5.0% crude fat, and 5.0% crude fiber. The mice were housed on irradiated Enrich-o′cobs™ Laboratory Animal Bedding in static microisolators on a 12-hour light cycle at 20-22° C. (68-72° F.) and 40-60% humidity.
Tumor Cell Culture: MC38 murine colon carcinoma cells were maintained in Dulbecco's Modified Eagle Medium (DMEM) supplemented with 10% fetal bovine serum and 2 mM glutamine, 100 units/mL penicillin G sodium, 100 μg/mL streptomycin sulfate, and 25 μg/mL gentamicin. Cell cultures were maintained in tissue culture flasks in a humidified incubator at 37° C., in an atmosphere of 5% CO2 and 95% air.
Tumor Implantation: Cells were harvested during exponential growth, and resuspended in cold DMEM. Each mouse was inoculated subcutaneously in the right flank with 1×10^6 cells (0.1 mL of cell suspension). Tumors were calipered in two dimensions to monitor growth as their mean volume approached the desired 100-150 mm^3 range. Tumor burden was calculated using the formula:
[formula] • where w=width and l=length, in mm, of the tumor. Tumor weight may be estimated with the assumption that 1 mg is equivalent to 1 mm^3 of tumor volume. […]
Tumor Growth Delay: Tumors were measured using calipers twice per week, and each animal was euthanized when its tumor reached a volume of 1000 mm^3 or at the end of the study (D47), whichever came first. […] The time to endpoint (TTE) for analysis was calculated for each mouse by the following equation: […]

[4] = HBI-8000 20 mg/kg p.o. qd×21, alone or plus anti-PDL-1 5 mg/kg i.p. biwk×3
[5] = HBI-8000 50 mg/kg p.o. qd×21, alone or plus anti-PDL-1 5 mg/kg i.p. biwk×3

Nc1cc(F)ccc1NC(=O)c1ccc(CNC(=O)/C=C/c2cccnc2)cc1 [HBI-8000, N-(2-amino-4-fluorophenyl)-4-[[[(2E)-1-oxo-3-(3-pyridinyl)-2-propen-1-yl]amino]methyl]benzamide]
Median TTE ([1]; endpoint 1000 mm^3 or Day 50): 28.4 days | % TGD ([1]; versus vehicle): 62% | t1/2 [2]: about 17 hours | Median TTE [3, 4]: 18.9 days | % TGD [3, 4]: −8% | Median TTE [3, 5]: 22.8 days | % TGD [3, 5]: 11%
